Non-standard residues stand in square brackets, D forms with d. Residues, ends and D or L forms follow the SMILES beside them. *: point of attachment. X2 = CC(C)(C)C[C@@H](N)C(=O)N[C@@H](Cc1cccnc1)C(=O)N[C@H](C(N)=O)[C@H](O*)c1ccccc1; Asn(3S-OH) = NC(=O)[C@@H](O)[C@H](N)C(=O)O; X1 = CC(C)[C@@H](O)[C@H](C)C(=O)*; aThr = C[C@H](O)[C@H](N)C(=O)O
Legend:
[1] = system: Staphylococcus aureus 133; format: cell-based; conditions: 133
Method: (§1) Determination of the Minimum Inhibitory Concentration (MIC):
(§2) The MIC is determined in the liquid dilution test in accordance with the NCCLS guidelines. Overnight cultures of Staphylococcus aureus 133, Enterococcus faecalis 27159, E. faecium 4147 and Streptococcus pneumoniae G9a are incubated with the described test substances in a 1:2 dilution series. The MIC determination is carried out with a cell count of 10^5 microbes per ml in Isosensitest medium (Difco, Irvine/USA), with the exception of S. pneumoniae which is tested in BHI broth (Difco, Irvine/USA) with 10% bovine serum with a cell count of 10^6 microbes per ml. The cultures are incubated at 37° C. for 18-24 hours, S. pneumoniae in the presence of 10% CO2.
(§3) The MIC is defined as the lowest concentration of each substance at which visible bacterial growth no longer occurs. The MIC values are reported in μg/ml.

[2] = system: Streptococcus pneumoniae G9a; format: cell-based; conditions: G9a
Method: as §1, §2, §3

E. faecium L4001 = format: cell-based, Enterococcus faecium; conditions: L4001
E. faecalis ICB 27159 = format: cell-based, Enterococcus faecalis; conditions: ICB 27159
Method: as §1, §2, §3

[3] = Determination of the free fraction (fu) in plasma via Transil or ultrafiltration; format: in vitro ADME, rat; conditions: rat, plasma
Method: Principle of the Determination of the Free Fraction via Transil:
The method described herein for determining the free fraction (fu) of a test substance is divided into 2 parts:
a) Determination of the Transil®/buffer partitioning ratio (MAbuffer) by incubating the test substance in a Transil® buffer (pH 7.4) dispersion and subsequently determining the concentration in the dispersion and in the buffer supernatant.
b) Determination of the Transil®/plasma partitioning ratio (MAplasma) by incubating the test substance in a Transil® plasma dispersion and subsequently determining the concentration in the dispersion and in the plasma.
The quotient of the two partitioning ratios gives fu.
Where substances are highly protein-bound, the plasma is usually diluted with isotonic phosphate buffer (pH 7.4) and then suspended with Transil®. Determination of fu′ (free fraction in diluted plasma) in this diluted protein solution takes place in analogy to the determination of fu. The free fraction in undiluted plasma is calculated from fu′ and the dilution factor.
Concerning this method, compare also: Schuhmacher, Joachim; Kohlsdorfer, Christian; Buehner, Klaus; Brandenburger, Tim; Kruk, Renate, “High-throughput determination of the free fraction of drugs strongly bound to plasma proteins.” Journal of Pharmaceutical Sciences 2004, 93, 816-830.
Determination of the Membrane Affinity of a Test Substance After Partitioning Between Transil® and Buffer (MAbuffer):
All incubations are carried out in suitable glass vessels, e.g. glass vials, ground-joint test tubes. The total volume is usually 0.5-5 ml, and the Transil® volume is 10-100 μl. If the membrane affinities are expected to be high, the Transil® dispersion can be diluted up to 20 times with phosphate buffer of pH 7.4, e.g. Dulbecco's PBS. Phosphate buffer of pH 7.4 is introduced into the incubation vessels, and the Transil® is pipetted in after thorough mixing. The test substance is pipetted in at a concentration of, for example, 200 ng/ml, n=6. The proportion of organic solvents should be ≦2%. The mixtures are incubated at room temperature i.e. on a mini-shaker at an angle of about 45°, at about 400 rpm for 30 min. The 100% value is determined by taking at least one aliquot of, for example, 100 μl, and the remaining mixture is centrifuged at about 1800 g for about 10 min. […]
The plasma of the species to be investigated is filtered through a semipermeable membrane. The concentration of substance in the filtrate is measured, and the free fraction fU is calculated therefrom. […] The concentration of substance in the ultrafiltrate (Cu, unbound substance concentration) and in the plasma before centrifugation (C; total substance concentration) is measured. The free fraction is calculated by the formula fu (%)=Cu/C*100.

MIC S. aureus 133 [1]: 0.5 µg/mL | MIC S. pneumoniae G9a [2]: 0.5 µg/mL | MIC E. faecium L4001 (E. faecium L4001): 1 µg/mL | MIC E. faecalis ICB 27159 (E. faecalis ICB 27159): 1 µg/mL | fraction unbound at 30 min [3]: 0.086
SMILES: CC[C@H](C)[C@H](NC(=O)[C@@H](CCCNC(=N)N)NC(=O)[C@H](CC(C)C)NC(=O)[C@@H](C)[C@H](O)C(C)C)C(=O)N[C@H](C(=O)NCC(=O)N[C@H](C(=O)N[C@@H](CO)C(=O)O[C@H](c1ccccc1)[C@H](NC(=O)[C@H](Cc1cccnc1)NC(=O)[C@H](N)CC(C)(C)C)C(N)=O)[C@H](O)C(N)=O)[C@H](C)O.O=C(O)C(F)(F)F.O=C(O)C(F)(F)F.O=C(O)C(F)(F)F [Example 5, 3-tert-Butyl-D-alanyl-3-(pyridin-3-yl)-L-alanyl-de(1-D-leucyl-2-L-leucyl)lysobactin tristrifluoroacetate, reference compound] (X1-L[dR]I[aThr]G[Asn(3S-OH)]S-X2)

Reference: patent publication US7531507B2, “Acylated nonadepsipeptides containing pyridyl alanine residues” (AiCuris GmbH & Co. KG, priority 2004, dated 2009)
